# Reference: US11267809B2, “BAF complex modulating compounds and methods of using the same” (THE BOARD OF TRUSTEES OF THE LELAND STANFORD JUNIOR …, priority 2017, dated 2022)
# How the values were obtained:
# Assay type in all cases: cell-based, human
# [1] = system: HCT116 (ARID1A−/−) cell line; assay: Synergy viability assay, HCT116 ARID1A(-/-)
# From the text: SMARCA4, the primary target of our original screen, is present in both human BAF and PBAF complexes in cancer^12. PBAF complexes differ from BAF complexes by incorporation of specific subunits. Specifically, PBAF complexes contain ARID2 (as opposed to ARID1A/B), PHF10 (BAF45a) (as opposed to […] (BAF45d)), PBRM1, and lack the BAF-specific subunit SS18. PBAF specific subunits are also frequently mutated in cancer, specifically renal clear cell carcinomas and cholangiocarcinomas^33-36. To assess whether the lead compound is targeting BAF, PBAF complexes, or both, we constitutively knocked down ARID1A or ARID2 by lentiviral transduction of HCT116 cells and compared the BAFi/ATRi synergy to the wild-type (ARID1A+/+).
# Isogenic HCT116 ARID1A(+/+) and ARID1A(−/−) cell lines were originally obtained from Horizon Discovery. MCF-7, Cal-51, A-704, and MDA-MB-436, MDA-MB-468, HCC1143, HCC1187, HCC1954, and ACHN cell lines were obtained from American Type […]. All cell lines were grown in McCoy's 5a Media supplemented with 10% FBS.
# Viability assays were performed in 384-well plates. Cells were plated at 500 cells/well. Each drug was administered in 5-doses with 4 replicates per plate, and each 5×5 drug combination was administered with 8 replicates per plate, 24 hours after seeding. All error bars represent 4 or 8 technical replicates averaged over 3 independent experiments. Media containing fresh drug was replaced every 48 hours. After 5 days, cellular viability was measured using CellTitre blue, as described by the manufacturer.
# HCT116 ARID1A(+/+) cells = assay: Cell cycle analysis after double thymidine block synchronization
# Protocol: To investigate this, we synchronized cells in the early G1/S phase and then tracked their progression through the cell cycle upon release into media containing BAFi. To assess the full cell cycle, time points were collected beginning at early G0/G1 of the second cycle following release from thymidine block. […] This is consistent with our observation that BAFi independently has minimal toxicity or effects on proliferation. […] Further, we observe that when BAFi cells are treated with VE-821, their decreased entry and slowed progression through S Phase results in an inability to successfully complete their transition through the cell cycle, akin to knockout of ARID1A. […]
# For hour-by-hour analysis, cells were collected, rinsed with PBS, and vortexed while adding 1mL ice cold 70% ethanol. […] Individual cells were gated based on forward and side scatter, auto fluorescent cells were omitted, and remaining cells were then analyzed for propidium iodide levels. To determine the percent of cells in each phase, DNA content histograms histograms were analyzed using R-package “mixtools” EM algorithm for mixtures of univariate normals. The areas of each mixed normal distribution were calculated to represent the total number of cells in each phase of the cell cycle. […] ESCs were incubated with BrdU for 1 h and the percent of cells in G2/M, stained with 7-AAD and analyzed on a BD FACScan.
# Cal-51 cells = assay: Synergy viability assay, Cal-51; settings: with VE-821 (1.25-20 uM each)
# From the text: (§1) In ARID1A-deficient tumors, ATR inhibition is thought to trigger premature mitotic entry and chromosome instability that cannot be resolved, resulting in mitotic catastrophe^27. […] We sought to assess whether generic BAF inhibition might sensitize a host of cancers to ATR inhibition. We tested the efficacy of BAFi and ATRi on nine additional human cancer cell lines including seven Breast cancer cell lines (HCC1143, HCC1954, HCC1187, MDAMB-468, MDA-MB-436, Cal-51, MCF-7) and two renal clear cell carcinoma cell lines (A-704, and ACHN). Cal-51 and MCF-7 are both considered aggressive, highly mutated breast cancer cell lines with numerous COSMIC Census gene mutations (FIG. 10). HCC1143 and MDA-MB-468 are sporadic basal-likecancers, HCC1187 is a triple-negative breast cancer, and HCC1954 and MDA-MB-436 are BRCA1 mutant breast cancers which harbor single driver mutations. To assess synergy, each cell line was treated with 5 doses of VE-821 (1.25 uM-20 uM) and 5 doses of Baficillin1 (1.25 uM-20 uM), both independently and with all possible combinations. Like HCT-116 cells, Baficillin1 sensitized MCF-7 and Cal-51 cells lines to treatment with VE-821 (FIG. 6a).
# (§2) Viability assays were performed in 384-well plates. Cells were plated at 500 cells/well. […] After 5 days, cellular viability was measured using CellTitre blue, as described by the manufacturer.
# [2] = system: A-704 renal clear cell carcinoma cell line; assay: Synergy viability assay, A-704; settings: with VE-821, PBRM1 mutant line
# From the text: as §1, §2
structure (smiles),measurement,setting,value
CO[C@H]1CN(C)C(=O)c2cc(NC(=O)NC(C)C)ccc2OC[C@H](C)N(Cc2ccc(-c3ccccn3)cc2)C[C@@H]1C [Baficillin1],sensitivity (cell survival) compared to wild-type HCT116,"[1]; single agent, 5 continuous days",slightly less sensitive
same,combination index (CI −/−),"[1]; with VE-821, 5 days",1.44±0.12
same,S/G2 crossover time,HCT116 ARID1A(+/+) cells; 10 uM Baficillin1 in combination with ATRi (VE-821 10 uM),~7.5 h
same,cell cycle rate,HCT116 ARID1A(+/+) cells; Baficillin1 10 uM alone,~11 hr per cycle
same,combination index (CI Cal-51),Cal-51 cells,0.57±0.09
same,combinatorial effects of BAFi/ATRi,[2],antagonism
